Each structure is given as a SMILES string. Read-outs that look alike come from different tables or passages of the source.

Assay [1] addresses T1, PI3K δ (Homo sapiens, UniProt O00329).
T1 construct: purchased Upstate
Nature of the assay: In vitro IC50, PI3K δ (p110δ/p85α inhibition assay). It counts as biochemical. The procedure:
(§1) IC50 values are measured using either a standard TLC assay for lipid kinase activity (described below) or a high-throughput membrane capture assay. Kinase reactions are performed by preparing a reaction mixture containing kinase, inhibitor (2% DMSO final concentration), buffer (25 mM HEPES, pH 7.4, 10 mM MgCl2), and freshly sonicated phosphatidylinositol (100 μg/ml). Reactions are initiated by the addition of ATP containing 10 μCi of γ-32P-ATP to a final concentration 10 or 100 μM and allowed to proceed for 5 minutes at room temperature. For TLC analysis, reactions are then terminated by the addition of 105 μl 1N HCl followed by 160 μl CHCl3:MeOH (1:1). The biphasic mixture is vortexed, briefly centrifuged, and the organic phase is transferred to a new tube using a gel loading pipette tip precoated with CHCl3. This extract is spotted on TLC plates and developed for 3-4 hours in a 65:35 solution of n-propanol:1M acetic acid. The TLC plates are then dried, exposed to a phosphorimager screen (Storm, Amersham), and quantitated.
(§2) Other commercial kits or systems for assaying PI3-K activities are available. The commercially available kits or systems can be used to screen for inhibitors and/or agonists of PI3-Ks including but not limited to PI 3-Kinase α, β, δ, and γ. An exemplary system is PI 3-Kinase (human) HTRF™ Assay from Upstate. […] Briefly, the assay is a time resolved FRET assay that indirectly measures PIP3 product formed by the activity of a PI3-K. The kinase reaction is performed in a microtitre plate (e.g., a 384 well microtitre plate). The total reaction volume is approximately 20 ul per well. In the first step, each well receives 2 ul of test compound in 20% dimethylsulphoxide resulting in a 2% DMSO final concentration. Next, approximately 14.5 ul of a kinase/PIP2 mixture (diluted in 1× reaction buffer) is added per well for a final concentration of 0.25-0.3 ug/ml kinase and 10 uM PIP2. The plate is sealed and incubated for 15 minutes at room temperature. To start the reaction, 3.5 ul of ATP (diluted in 1× reaction buffer) is added per well for a final concentration of 10 uM ATP. The plate is sealed and incubated for 1 hour at room temperature. The reaction is stopped by adding 5 ul of Stop Solution per well and then 5 ul of Detection Mix is added per well. The plate is sealed, incubated for 1 hour at room temperature, and then read on an appropriate plate reader. Data is analyzed and IC50s are generated using GraphPad Prism 5.

Assay [2] has as its target T2, PI3K γ (Homo sapiens, UniProt P48736).
T2 construct: purchased Sigma
As to the kind of experiment: In vitro IC50, PI3K γ (p110γ inhibition assay). It counts as biochemical. The following applies: in vitro kinase assay. The procedure: as §1, with “Class I PI3-Ks can be either purchased (p110α/p85α, p110β/p85α, p110δ/p85α from Upstate, and p110γ from Sigma) or expressed as previously described (Knight et al., 2004). IC50” for “IC50”, “quantitated. For each compound, kinase activity is measured at 10-12 inhibitor concentrations representing two-fold dilutions from the highest concentration tested (typically, 200 μM).” for “quantitated.”
as §2

Assay [3] deals with T3, PI3K α (Homo sapiens, UniProt P42336).
T3 construct: purchased Upstate
Nature of the assay: In vitro IC50, PI3K α (p110α/p85α inhibition assay). The class given is biochemical. The method, then: as §1, §2

Assay [4] deals with Balb/c splenic B cells. As to the kind of experiment: B cell activation and proliferation assay (Alamar Blue). As to conditions: Mus musculus. It counts as cell-based. The procedure: The ability of one or more subject compounds to inhibit B cell activation and proliferation is determined according to standard procedures known in the art. For example, an in vitro cellular proliferation assay is established that measures the metabolic activity of live cells. The assay is performed in a 96 well microtiter plate using Alamar Blue reduction. Balb/c splenic B cells are purified over a Ficoll-Paque™ PLUS gradient followed by magnetic cell separation using a MACS B cell Isolation Kit (Miletenyi). Cells are plated in 90 ul at 50,000 cells/well in B Cell Media (RPMI+10% FBS+Penn/Strep+50 uM bME+5 mM HEPES). A compound disclosed herein is diluted in B Cell Media and added in a 10 ul volume. Plates are incubated for 30 min at 37 C and 5% CO2 (0.2% DMSO final concentration). A 50 ul B cell stimulation cocktail is then added containing either 10 ug/ml LPS or 5 ug/ml F(ab′)2 Donkey anti-mouse IgM plus 2 ng/ml recombinant mouse IL4 in B Cell Media. Plates are incubated for 72 hours at 37° C. and 5% CO2. A volume of 15 uL of Alamar Blue reagent is added to each well and plates are incubated for 5 hours at 37 C and 5% CO2. Alamar Blue fluoresce is read at 560Ex/590Em, and IC50 or EC50 values are calculated using GraphPad Prism 5.
On the technique in general: Alamar Blue is a resazurin reagent that responds to reducing activity.

The mark [5] stands for this setting: in vitro kinase assay, read-out: IC50(nM) PI3K δ.
The mark [6] stands for this setting: in vitro kinase assay, read-out: IC50(nM) PI3K α.
[7] abbreviates: read-out: B cell proliferation EC50.

T3 sequence (P42336 whole entry): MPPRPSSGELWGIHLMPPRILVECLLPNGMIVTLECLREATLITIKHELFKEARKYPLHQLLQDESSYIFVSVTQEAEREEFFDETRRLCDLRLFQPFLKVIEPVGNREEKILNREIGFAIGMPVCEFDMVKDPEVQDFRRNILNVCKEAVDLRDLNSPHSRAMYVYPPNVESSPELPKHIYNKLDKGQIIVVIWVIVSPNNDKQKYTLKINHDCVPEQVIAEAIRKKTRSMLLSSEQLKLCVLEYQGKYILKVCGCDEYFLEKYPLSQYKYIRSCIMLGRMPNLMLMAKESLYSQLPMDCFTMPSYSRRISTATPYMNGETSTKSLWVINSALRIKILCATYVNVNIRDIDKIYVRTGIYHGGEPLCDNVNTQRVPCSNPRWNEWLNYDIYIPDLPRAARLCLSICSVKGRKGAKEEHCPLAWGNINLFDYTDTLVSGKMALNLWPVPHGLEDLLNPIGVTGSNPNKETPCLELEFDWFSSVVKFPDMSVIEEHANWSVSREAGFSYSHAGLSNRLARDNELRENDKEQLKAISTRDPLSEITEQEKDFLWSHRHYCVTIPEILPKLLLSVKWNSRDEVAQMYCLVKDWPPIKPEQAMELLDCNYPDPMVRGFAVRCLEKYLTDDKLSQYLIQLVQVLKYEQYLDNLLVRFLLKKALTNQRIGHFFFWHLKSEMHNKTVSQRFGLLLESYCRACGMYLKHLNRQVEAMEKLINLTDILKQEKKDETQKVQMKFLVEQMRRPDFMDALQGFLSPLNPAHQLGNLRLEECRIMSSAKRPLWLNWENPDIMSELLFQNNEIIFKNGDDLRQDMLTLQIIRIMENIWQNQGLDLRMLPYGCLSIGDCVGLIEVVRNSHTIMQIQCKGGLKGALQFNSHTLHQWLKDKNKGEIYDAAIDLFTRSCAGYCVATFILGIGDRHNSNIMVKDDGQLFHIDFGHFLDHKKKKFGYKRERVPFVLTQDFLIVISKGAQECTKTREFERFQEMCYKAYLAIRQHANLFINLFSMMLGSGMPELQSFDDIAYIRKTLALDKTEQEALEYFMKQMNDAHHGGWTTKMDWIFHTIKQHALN
T3 sequence (P27986 whole entry partner): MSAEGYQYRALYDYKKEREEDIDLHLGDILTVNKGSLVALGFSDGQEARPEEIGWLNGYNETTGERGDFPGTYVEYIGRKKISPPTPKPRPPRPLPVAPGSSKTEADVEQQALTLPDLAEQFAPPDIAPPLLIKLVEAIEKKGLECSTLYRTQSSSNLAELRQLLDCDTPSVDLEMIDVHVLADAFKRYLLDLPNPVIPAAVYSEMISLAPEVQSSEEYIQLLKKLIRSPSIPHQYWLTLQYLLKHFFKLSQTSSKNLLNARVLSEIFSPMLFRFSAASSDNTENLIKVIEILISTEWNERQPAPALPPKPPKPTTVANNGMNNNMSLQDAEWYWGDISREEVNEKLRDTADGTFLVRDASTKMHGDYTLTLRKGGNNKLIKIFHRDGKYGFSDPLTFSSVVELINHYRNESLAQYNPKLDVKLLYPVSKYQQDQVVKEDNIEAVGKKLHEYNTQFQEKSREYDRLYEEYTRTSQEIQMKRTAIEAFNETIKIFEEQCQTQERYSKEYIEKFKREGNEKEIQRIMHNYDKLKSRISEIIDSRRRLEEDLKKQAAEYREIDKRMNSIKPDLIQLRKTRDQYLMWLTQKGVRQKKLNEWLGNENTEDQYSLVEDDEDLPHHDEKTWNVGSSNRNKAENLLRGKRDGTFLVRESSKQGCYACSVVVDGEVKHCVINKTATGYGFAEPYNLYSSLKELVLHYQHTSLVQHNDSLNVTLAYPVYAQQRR
T1 sequence (O00329 whole entry): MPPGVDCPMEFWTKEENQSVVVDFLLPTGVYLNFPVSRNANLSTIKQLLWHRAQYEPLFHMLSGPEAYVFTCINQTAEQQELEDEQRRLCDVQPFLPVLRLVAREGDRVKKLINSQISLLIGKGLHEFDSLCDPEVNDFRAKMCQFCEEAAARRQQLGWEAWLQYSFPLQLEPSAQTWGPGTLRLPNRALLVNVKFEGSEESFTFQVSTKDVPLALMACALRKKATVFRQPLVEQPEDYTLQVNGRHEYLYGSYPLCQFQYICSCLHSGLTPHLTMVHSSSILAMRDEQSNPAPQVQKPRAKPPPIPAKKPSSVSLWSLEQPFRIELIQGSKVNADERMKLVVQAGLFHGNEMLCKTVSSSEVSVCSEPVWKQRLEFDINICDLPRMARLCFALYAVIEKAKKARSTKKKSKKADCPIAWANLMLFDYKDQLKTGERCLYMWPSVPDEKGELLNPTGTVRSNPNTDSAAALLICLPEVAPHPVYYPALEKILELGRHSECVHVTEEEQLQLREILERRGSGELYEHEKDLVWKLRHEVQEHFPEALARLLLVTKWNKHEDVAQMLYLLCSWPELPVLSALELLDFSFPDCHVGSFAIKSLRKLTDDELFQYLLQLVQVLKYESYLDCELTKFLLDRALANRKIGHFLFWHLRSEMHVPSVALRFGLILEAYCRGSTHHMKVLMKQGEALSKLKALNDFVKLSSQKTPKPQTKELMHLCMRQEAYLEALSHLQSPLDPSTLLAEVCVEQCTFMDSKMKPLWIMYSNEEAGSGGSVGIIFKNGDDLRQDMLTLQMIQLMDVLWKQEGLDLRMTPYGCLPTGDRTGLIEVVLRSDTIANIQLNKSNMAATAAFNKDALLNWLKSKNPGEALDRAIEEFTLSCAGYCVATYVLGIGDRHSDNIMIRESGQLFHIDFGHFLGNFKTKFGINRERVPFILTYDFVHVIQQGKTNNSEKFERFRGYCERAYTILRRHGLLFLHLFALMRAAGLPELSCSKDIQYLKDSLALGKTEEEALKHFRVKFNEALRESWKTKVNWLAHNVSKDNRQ
T1 sequence (P27986 whole entry partner): as the sequence (P27986 whole entry partner) above
T2 sequence (P48736 whole entry): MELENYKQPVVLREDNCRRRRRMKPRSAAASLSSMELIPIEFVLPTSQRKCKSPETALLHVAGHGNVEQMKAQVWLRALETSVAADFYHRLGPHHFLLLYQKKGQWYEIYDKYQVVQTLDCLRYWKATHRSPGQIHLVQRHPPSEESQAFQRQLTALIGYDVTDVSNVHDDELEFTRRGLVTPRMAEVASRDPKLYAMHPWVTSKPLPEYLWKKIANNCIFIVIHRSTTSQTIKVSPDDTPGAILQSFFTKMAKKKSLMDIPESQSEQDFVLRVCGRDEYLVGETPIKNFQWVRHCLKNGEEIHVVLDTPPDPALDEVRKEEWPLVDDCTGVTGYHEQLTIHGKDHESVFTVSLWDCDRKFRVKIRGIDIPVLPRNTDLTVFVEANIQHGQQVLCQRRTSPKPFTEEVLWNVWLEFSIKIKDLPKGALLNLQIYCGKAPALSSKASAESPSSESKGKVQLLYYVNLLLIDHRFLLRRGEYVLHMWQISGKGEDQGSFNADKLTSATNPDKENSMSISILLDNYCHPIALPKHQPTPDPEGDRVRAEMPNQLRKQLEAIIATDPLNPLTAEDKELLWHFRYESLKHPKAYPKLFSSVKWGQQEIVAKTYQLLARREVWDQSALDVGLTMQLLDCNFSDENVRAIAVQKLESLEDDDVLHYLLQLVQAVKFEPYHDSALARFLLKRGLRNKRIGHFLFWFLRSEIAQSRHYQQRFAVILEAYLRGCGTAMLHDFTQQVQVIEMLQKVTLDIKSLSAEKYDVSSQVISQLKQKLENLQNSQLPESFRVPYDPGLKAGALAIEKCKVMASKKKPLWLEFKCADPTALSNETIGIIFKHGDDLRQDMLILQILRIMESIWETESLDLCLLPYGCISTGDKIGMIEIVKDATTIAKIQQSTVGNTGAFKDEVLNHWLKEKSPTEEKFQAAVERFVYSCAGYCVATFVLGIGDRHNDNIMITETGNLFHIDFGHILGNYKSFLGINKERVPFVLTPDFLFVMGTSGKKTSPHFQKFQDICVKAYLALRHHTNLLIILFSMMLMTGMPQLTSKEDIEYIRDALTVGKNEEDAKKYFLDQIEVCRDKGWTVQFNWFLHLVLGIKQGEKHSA

On to `Cc1cccc2cc(Cn3nc(-c4cn[nH]c4)c4c(N)ncnc43)nc(OC3CCN(C)CC3)c12` [Compound 3], for which the IC50 in assay [1] (setting [5]) was less than 100 nM; in assay [2] it was more than 10000 nM; in assay [3] (setting [6]), less than 10000 nM. In assay [4] (setting [7]), the EC50 is less than 100 nM.

Consider `Cc1cccc2cc(Cn3nc(-c4ccc5oc(N)nc5c4)c4c(N)ncnc43)nc(OC3CCN(C(C)C)CC3)c12` [Compound 4], for which the IC50 in assay [1] (setting [5]) was less than 100 nM; in assay [2], less than 100 nM; in assay [3] (setting [6]), less than 1000 nM. In assay [4] (setting [7]), the EC50 is less than 100 nM.

On to `Cc1cccc2cc(Cn3nc(-c4ccc5oc(N)nc5c4)c4c(N)ncnc43)nc(OC3CCN(C)CC3)c12` [Compound 5], for which the IC50 in assay [1] (setting [5]), in assay [2] and in assay [3] (setting [6]) was less than 100 nM throughout. Also, the EC50 in assay [4] (setting [7]) was less than 100 nM.

`CCN1CCC(Oc2nc(Cn3nc(-c4ccc5oc(N)nc5c4)c4c(N)ncnc43)cc3cccc(C)c23)CC1` [Compound 6]: the concentration for half-maximal inhibition (IC50) was less than 100 nM in assay [1] (setting [5]), less than 100 nM in assay [2] and less than 1000 nM in assay [3] (setting [6]). Further, the EC50 in assay [4] (setting [7]) is less than 100 nM.

Turning to `CCN1CCC(Oc2nc(Cn3nc(-c4cn[nH]c4)c4c(N)ncnc43)cc3cccc(C)c23)CC1` [Compound 7], the values for the IC50 in assay [1] (setting [5]), in assay [2] and in assay [3] (setting [6]) were less than 100 nM, more than 10000 nM and less than 10000 nM, respectively. For the same compound, the EC50 in assay [4] (setting [7]) was less than 100 nM.

For the compound `Cc1cccc2cc(Cn3nc(-c4cn[nH]c4)c4c(N)ncnc43)nc(OC3CCNCC3)c12` [Compound 9], the IC50 is less than 100 nM in assay [1] (setting [5]), more than 10000 nM in assay [2] and more than 10000 nM in assay [3] (setting [6]). In addition, the EC50 in assay [4] (setting [7]) was less than 10000 nM.

With `Cc1cccc2cc(Cn3nc(-c4cn[nH]c4)c4c(N)ncnc43)nc(OC3CCN(C(C)C)CC3)c12` [Compound 13], the IC50 in assay [1] (setting [5]) was less than 100 nM; in assay [2] it was less than 10000 nM; in assay [3] (setting [6]), less than 10000 nM. The EC50 in assay [4] (setting [7]) is less than 100 nM.

Regarding `Cc1cccc2cc(C(C)Nc3ncnc4[nH]cnc34)nc(OC3CCN(C)CC3)c12` (centres unmarked) [Compound 15], the IC50 in assay [1] was less than 100 nM; in assay [2], more than 10000 nM; in assay [3] it was more than 10000 nM. Also, the EC50 in assay [4] (read-out: B cell proliferation EC50 (nM)) was less than 100 nM.

As for `CCN1CCC(Oc2nc(C(C)Nc3ncnc4[nH]cnc34)cc3cccc(C)c23)CC1` (centres unmarked) [Compound 16], the concentration for half-maximal inhibition (IC50) in assay [1] (setting [5]) is less than 100 nM; in assay [2], more than 10000 nM; in assay [3] (setting [6]) it was more than 10000 nM. The EC50 in assay [4] (setting [7]) is less than 100 nM.

On to `Cc1cccc2cc(Cn3nc(-c4ccc5oc(N)nc5c4)c4c(N)ncnc43)nc(N3CCN(C)CC3)c12` [Compound 17], for which the IC50 in assay [1] (setting [5]) is less than 100 nM; in assay [2], less than 100 nM; in assay [3] (setting [6]) it was less than 1000 nM. Besides, in assay [4] (setting [7]), the EC50 is less than 100 nM.

On to `Cc1cccc2cc(C(C)Nc3ncnc4[nH]cnc34)nc(CCN3CCN(C)CC3)c12` (centres unmarked) [Compound 20], for which the IC50 was less than 100 nM in assay [1] (setting [5]), more than 10000 nM in assay [2] and more than 10000 nM in assay [3] (setting [6]). In assay [4] (setting [7]), the EC50 was less than 100 nM.

For `Cc1cccc2cc(Cn3nc(-c4ccc5oc(N)nc5c4)c4c(N)ncnc43)nc(CCN3CCN(C)CC3)c12` [Compound 25], the IC50 in assay [1] (setting [5]) was less than 100 nM; in assay [2] it was less than 1000 nM; in assay [3] (setting [6]), less than 1000 nM. The EC50 in assay [4] (setting [7]) was less than 100 nM.

On to `Cc1cccc2cc(Cn3nc(-c4ccc5oc(N)nc5c4)c4c(N)ncnc43)nc(N3CCCC3)c12` [Compound 26], for which the IC50 is less than 100 nM in assay [1] (setting [5]), less than 100 nM in assay [2] and less than 1000 nM in assay [3] (setting [6]). In assay [4] (setting [7]), the EC50 is less than 1000 nM.

With `Cc1cccc2cc(Cn3nc(-c4ccc5nc(N)sc5c4)c4c(N)ncnc43)nc(OC(C)C)c12` [Compound 31], the IC50 in assay [1] (setting [5]), in assay [2] and in assay [3] (setting [6]) was less than 100 nM in each case. Moreover, in assay [4] (setting [7]), the EC50 is less than 1000 nM.

In the case of `CC(Nc1ncnc2[nH]cnc12)c1cc2ccccc2c(OC2CCN(C(C)C)CC2)n1` (centres unmarked) [Compound 35], the IC50 in assay [1] (setting [5]) was less than 1000 nM; in assay [2], more than 10000 nM; in assay [3] (setting [6]), more than 10000 nM. The EC50 in assay [4] (setting [7]) is less than 100 nM.

Consider `Cc1cccc2cc(C(C)Nc3ncnc4[nH]cnc34)nc(CCN3CCN(S(C)(=O)=O)CC3)c12` (centres unmarked) [Compound 50], for which the IC50 in assay [1] (setting [5]) was less than 100 nM; in assay [2], less than 10000 nM; in assay [3] (setting [6]), less than 10000 nM. Besides, the EC50 in assay [4] (setting [7]) was less than 100 nM.

For `CC(Nc1ncnc2[nH]cnc12)c1cc2cccc(Cl)c2c(OC2CCN(S(C)(=O)=O)CC2)n1` (centres unmarked) [Compound 54], the IC50 was less than 1000 nM in assay [1] (setting [5]), more than 10000 nM in assay [2] and more than 10000 nM in assay [3] (setting [6]). Besides, the EC50 in assay [4] (setting [7]) is less than 1000 nM.

Turning to `CN1CCC(Oc2nc(Cn3nc(-c4cn[nH]c4)c4c(N)ncnc43)cc3cccc(Cl)c23)CC1` [Compound 55], the results for the concentration for half-maximal inhibition (IC50) in assay [1] (setting [5]), in assay [2] and in assay [3] (setting [6]) were less than 100 nM, more than 10000 nM and more than 10000 nM, respectively. The EC50 in assay [4] (setting [7]) was less than 100 nM.

With `CCN1CCC(Oc2nc(Cn3nc(-c4cn[nH]c4)c4c(N)ncnc43)cc3cccc(Cl)c23)CC1` [Compound 56], the IC50 in assay [1] (setting [5]) was less than 1000 nM; in assay [2] it was more than 10000 nM; in assay [3] (setting [6]), more than 10000 nM. Also, the EC50 in assay [4] (setting [7]) is less than 100 nM.

With `CC(C)N1CCC(Oc2nc(Cn3nc(-c4cn[nH]c4)c4c(N)ncnc43)cc3cccc(Cl)c23)CC1` [Compound 57], the values for the IC50 in assay [1] (setting [5]), in assay [2] and in assay [3] (setting [6]) were less than 100 nM, more than 10000 nM and more than 10000 nM, respectively. For the same compound, the EC50 in assay [4] (setting [7]) is less than 100 nM.

With `CS(=O)(=O)N1CCC(Oc2nc(Cn3nc(-c4cn[nH]c4)c4c(N)ncnc43)cc3cccc(Cl)c23)CC1` [Compound 58], the IC50 in assay [1] (setting [5]) is less than 1000 nM; in assay [2], more than 10000 nM; in assay [3] (setting [6]), more than 10000 nM. Besides, the EC50 in assay [4] (setting [7]) is less than 1000 nM.

For `CC(Nc1ncnc2[nH]cnc12)c1cc2cccc(Cl)c2c(CN2CCN(S(C)(=O)=O)CC2)n1` (centres unmarked) [Compound 59], the 50% inhibitory concentration (IC50) in assay [1] (setting [5]) was less than 1000 nM; in assay [2], more than 10000 nM; in assay [3] (setting [6]) it was more than 10000 nM. For the same compound, in assay [4] (setting [7]), the EC50 was less than 1000 nM.

Consider `C[C@H](Nc1ncnc2[nH]cnc12)c1cc2cccc(Cl)c2c(OC2CCN(S(C)(=O)=O)CC2)n1` [Compound 60], for which the IC50 was less than 1000 nM in assay [1] (setting [5]), less than 10000 nM in assay [2] and more than 10000 nM in assay [3] (setting [6]). In addition, the EC50 in assay [4] (setting [7]) was less than 1000 nM.

As a reminder, the IC50 is the point on the concentration scale where inhibition reaches its midpoint.

The record behind these values is patent US9315505B2, “Heterocyclic compounds and uses thereof” (INTELLIKINE LLC, priority 2009, dated 2016).
